Assays:
[1] = test system: PBMC from coeliac volunteers; experiment: Antagonism of A-gliadin 57-73 QE65 interferon gamma ELISPOT response (simultaneous addition of peptide); type: cell-based, human; conditions: peptides known to bind HLA-DQ2, 50 μg/ml plus A-gliadin 57-73 QE65 10 μg/ml
Method: Simultaneous addition of peptide (50 μg/ml) or buffer and A-gliadin 57-73 QE65 (10 μg/ml) in IFNgamma ELISPOT using PBMC from coeliac volunteers 6 days after commencing 3 day gluten challenge (n=5). Results were expressed as response with peptide plus A-G 57-73 QE65 (mean of duplicates) as % response with buffer plus A-G 57-73 QE65 (mean of 20 replicates). (See Table 9).

[2] = test system: HLA-DQ2; conditions: cited from earlier work

| Sequence | % Inhibit. of A-gliadin 57-73 QE65 interferon gamma ELISpot response [1] | % Inhibit. of A-gliadin 57-73 QE65 interferon gamma ELISpot response ([1]; listed as HLA class 1 α 46-60) | binding to HLA-DQ2 [2] |
| --- | --- | --- | --- |
| PRAPWIEQEGPEYW [HLA1a, reference compound] | 0% | does not alter responses | bind avidly to HLA-DQ2 |
| IDVWLGGLLAENFLPY [TP, reference compound] | 31% |  | bind avidly to HLA-DQ2 |
